Legend:
Type in all cases: physicochemical
[1] = Determination of solubility (qualitative, mixing ionic liquid with solvent)
Experimental: Solubility was determined only qualitatively by mixing approximately 0.5 ml of the ionic liquid with the same amount of organic solvent and shaking. All samples were checked a second time after several hours to ensure, that no slow phase separation had occured.

[2] = Determination of viscosity (Brookfield Cone and Plate Viscometer)
Experimental: Viscosity was measured using an LVDV-II Brookfield Cone and Plate Viscometer (1% accuracy, 0.2 repeatability). The sample cup of the viscometer was fitted with luer and purge fittings, so that a positive current of dry dinitrogen was maintained at all times during the measurements, thus avoiding absorption of atmospheric moisture. The sample cup was jacketed with a circulating water bath that was controlled by a circulator bath Grant LTD 6G (+0.1° C. accuracy).

[3] = Thermal decomposition observed with melting point determination; conditions: thermal stability

| Compound | Solubility ([1]; solvent acetonitrile) | Solubility ([1]; solvent hexane) | Viscosity ([2]; 5 ° C.) [cP] | Viscosity ([2]; 10 ° C.) [cP] | Viscosity ([2]; 15 ° C.) [cP] | Viscosity ([2]; 20 ° C.) [cP] | Viscosity ([2]; 25 ° C.) [cP] | Viscosity ([2]; 30 ° C.) [cP] | Viscosity ([2]; 35 ° C.) [cP] | Viscosity ([2]; 40 ° C.) [cP] | Viscosity ([2]; 45 ° C.) [cP] | Viscosity ([2]; 50 ° C.) [cP] | Viscosity ([2]; 55 ° C.) [cP] | Viscosity ([2]; 60 ° C.) [cP] | Viscosity ([2]; 65 ° C.) [cP] | Viscosity ([2]; 70 ° C.) [cP] | Viscosity ([2]; 75 ° C.) [cP] | Viscosity ([2]; 80 ° C.) [cP] | Viscosity ([2]; 85 ° C.) [cP] | Viscosity ([2]; 90 ° C.) [cP] | also measured |
| --- | --- | --- | --- | --- | --- | --- | --- | --- | --- | --- | --- | --- | --- | --- | --- | --- | --- | --- | --- | --- | --- |
| CCCCCCCCCCCCCC[P+](CCCCCC)(CCCCCC)CCCCCC.O=C1O[B-]2(OC(=O)c3ccccc3O2)Oc2ccccc21 [[R4P] [BSB], [(C6)3P(C14)][BSB]] | Y* | N** | 7334 | 4241 | 2663 | 1730 | 1164 | 801.4 | 566.3 | 407.0 | 300.4 | 229.6 | 171.4 | 132.6 | 106.3 | 85.1 | 68.4 | 56.4 | 47.2 | 39.9 | Viscosity ([2]; 95 ° C.): 34.1 cP |
| CCCCCCCCCCCCCC[P+](CCCCCC)(CCCCCC)CCCCCC.c1ccc2c(c1)O[B-]1(Oc3ccccc3-2)Oc2ccccc2-c2ccccc2O1 [[R4P] [BBPB], [(C6)3P(C14)][BBPB]] | Y* |  | 95020 | 59233 | 33737 | 20660 | 12813 | 8245 | 5453 | 3675 | 2703 | 1953 | 1393 | 1022 | 759.0 | 550.7 | 333.9 | 209.2 | 173.0 | 177.8 | Solubility ([1]; solvent iso-propyl alcohol): Y* |
| CCCCCCCCCCCCCC[P+](CCCCCC)(CCCCCC)CCCCCC.c1ccc2c(c1)O[B-]1(O2)Oc2ccccc2O1 [[R4P] [BBB], [(C6)3P(C14)][BBB]] | Y* | N** |  |  | 6184 | 3735 | 2439 | 1593 | 1087 | 739.8 | 538.1 | 386.7 | 288.3 | 217.2 | 168.2 | 126.3 | 100.2 | 81.0 | 65.2 | 50.2 | Solubility ([1]; solvent iso-propyl alcohol): Y*; decomposition (temperature) [3]: above 200 °C; Viscosity ([2]; 95 ° C.): 40.91 cP |
